Measured values reported in US10513519B2, “Solid forms of (1S,4S)-4-(2-(((3S,4R)-3-fluorotetrahydro-2H-pyran-4-yl)amino)-8-((2,4,6-trichlorophenyl)amino)-9H-purin-9-yl)-1-methylcyclohexane-1-carboxamide and methods of their use” (Signal Pharmaceuticals, LLC, priority 2016, dated 2019).

System: cancer cell lines
Experiment: Multiplexed cytotoxicity assay: cell proliferation (relative cell count IC50, GI50)
Format: cell-based
Conditions: Homo sapiens
Procedure: (§1) Cells are grown in RPMI1640, 10% FBS, 2 mM L-alanyl-L-Glutamine, 1 mM Na pyruvate or a special medium in a humidified atmosphere of 5% CO2 at 37° C. Cells are seeded into 384-well plates and incubated in a humidified atmosphere of 5% CO2 at 37° C. Compounds are added 24 h post cell seeding. At the same time, a time zero untreated cell plate is generated. After a 72 hour incubation period, cells are fixed and stained with fluorescently labeled antibodies and nuclear dye to allow visualization of nuclei, apoptotic cells and mitotic cells. Apoptotic cells are detected using an anti-active caspase-3 antibody. Mitotic cells are detected using an anti phospho-histone-3 antibody. Compounds are serially diluted 3.16-fold and assayed over 10 concentrations in a final assay concentration of 0.1% DMSO from the highest test concentration of 10 μM. Automated fluorescence microscopy was carried out using a Molecular Devices ImageXpress Micro XL high-content imager, and images are collected with a 4× objective.
(§2) Sixteen-bit TIFF images are acquired and analyzed with MetaXpress 5.1.0.41 software. Cell proliferation is measured by the signal intensity of the incorporated nuclear dye. The cell proliferation assay output is referred to as the relative cell count. To determine the cell proliferation end point, the cell proliferation data output is transformed to percentage of control (POC) using the following formula: POC=relative cell count(compound wells)/relative cell count(vehicle wells)×100
(§3) GI50 is the concentration needed to reduce the observed growth by half. This is the concentration that inhibits the growth to the level midway between growth in untreated cells and the number of cells seeded in the well (Time zero value). The IC50 values are calculated using nonlinear regression to fit data to a sigmoidal 4 point, 4 parameter One-Site dose response model, where: y(fit)=A+[(B−A)/(1+((C/x)^D))].
as §1, with “In another experiment, cells were grown” for “Cells are grown”, “Cells were” for “Cells are”, “Compounds were” for “Compounds are”, “plate was” for “plate is”, “cells were” for “cells are”, “images were” for “images are”
as §2, with “images were” for “images are”, “proliferation was” for “proliferation is”, “output was” for “output is”
as §3, with “GI50 refers to” for “GI50 is”, “This corresponds to” for “This is”, “values were” for “values are”

[1] = BV-173, BV173 (Hematopoietic and lymphoid, Leukemia)
[2] = BXPC-3, 72 h, BXPC3, Pancreas, 72 h
[3] = BeWo, 72 h, Female GU, Placenta
[4] = C-4-II, C4II (Female GU, Cervix)
[5] = C-33-A, C33A (Female GU, Cervix)
[6] = CA46, CA46 (Hematopoietic and lymphoid, Lymphoma)
[7] = CAL-62, 72 h, CAL62, Endocrine, Thyroid, 72 h
[8] = CAPAN-1, 72 h, CAPAN1, Pancreas, 72 h
[9] = CCF-STTG1, CCFSTTG1 (CNS, Glioma)
[10] = CCRF-CEM, CCRFCEM (Hematopoietic and lymphoid, Leukemia)
[11] = CFPAC-1, 72 h, CFPAC1, Pancreas, 72 h
[12] = CGTH-W-1, 72 h, CGTHW1, Endocrine, Thyroid, 72 h
[13] = CHP-212, 72 h, CHP212, CNS, Neuroblastoma, 72 h
[14] = COLO-320-HSR, COLO320HSR (Colon)
[15] = COLO-829, COLO829 (Skin, Melanoma)
[16] = COR-L23, 72 h, CORL23, Lung, NSCLC, 72 h
[17] = COR-L105, 72 h, CORL105, Lung, NSCLC, 72 h
[18] = CRO-AP2, CROAP2 (Hematopoietic and lymphoid, Lymphoma)
[19] = Ca-Ski, 72 h, CASKI, Female GU, Ovary
[20] = Calu-1, 72 h, CALU1, Lung, NSCLC, 72 h
[21] = Calu-6, 72 h, CALU6, Lung, NSCLC, 72 h
[22] = Caov-3, 72 h, CAOV3, Female GU, Ovary, 72 h
[23] = Capan-2, 72 h, CAPAN2, Pancreas, 72 h
[24] = ChaGo-K-1, 72 h, CHAGOK1, Lung, NSCLC, 72 h
[25] = D283 Med, D283MED (CNS, Medulloblastoma)
[26] = DBTRG-05MG, DBTRG05MG (CNS, Glioma)
[27] = DMS-53, 72 h, DMS53, Lung, SCLC, 72 h
[28] = DMS-114, 72 h, DMS114, Lung, SCLC, 72 h
[29] = DMS-273, 72 h, DMS273, Lung, SCLC, 72 h
[30] = DOHH-2, DOHH2 (Hematopoietic and lymphoid, Lymphoma)
[31] = DU-145, 72 h, DU145, Prostate, 72 h
[32] = Daoy, DAOY (CNS, Medulloblastoma)
[33] = Daudi, DAUDI (Hematopoietic and lymphoid, Lymphoma)
[34] = Detroit 562, DETROIT562 (Head and Neck)
[35] = DoTc2-4510, DOTC24510 (Female GU, Cervix)
[36] = GA-10, GA10 (Hematopoietic and lymphoid, Lymphoma)
[37] = HEC-1-A, 72 h, HEC1A, Female GU, Uterus
[38] = HEL 92.1.7, HEL9217 (Hematopoietic and lymphoid, Leukemia)
[39] = HPAF-II, 72 h, HPAFII, Pancreas
[40] = HT-1080, 72 h, HT1080, Soft Tissue, Sarcoma, 72 h
[41] = Hs 294T, HS294T (Skin, Melanoma)
[42] = Hs 695T, HS695T (Skin, Melanoma)
[43] = HuP-T4, 72 h, HUPT4, Pancreas, 72 h
[44] = J-RT3-T3-5, JRT3T35 (Hematopoietic and lymphoid, Leukemia)
[45] = JEG-3, 72 h, JEG3, Female GU, Placenta, 72 h

C[C@]1(C(N)=O)CC[C@@H](n2c(Nc3c(Cl)cc(Cl)cc3Cl)nc3cnc(N[C@@H]4CCOC[C@H]4F)nc32)CC1 [Compound 1, cis-4-[2-{[(3S,4R)-3-fluorooxan-4-yl]amino}-8-(2,4,6-trichloroanilino)-9H-purin-9-yl]-1-methylcyclohexane-1-carboxamide]
GI50 (BT-474, BT474 (Breast)): > 10 µM
IC50 (BT-474, BT474 (Breast)): > 10 µM
GI50 (BT-549, BT549 (Breast)): > 10 µM
IC50 (BT-549, BT549 (Breast)): > 10 µM
GI50 [1]: 1.1 µM
IC50 [1]: > 10 µM
GI50 [2]: 0.0369 µM
IC50 [2]: 0.0455 µM
GI50 [3]: 5.16 µM
IC50 [3]: 5.69 µM
GI50 [4]: > 10 µM
IC50 [4]: > 10 µM
GI50 [5]: 0.191 µM
IC50 [5]: 0.407 µM
GI50 [6]: 0.0146 µM
IC50 [6]: 0.0213 µM
GI50 (CAKI-1, CAKI1 (Kidney)): 0.0914 µM
IC50 (CAKI-1, CAKI1 (Kidney)): 0.151 µM
GI50 (CAKI-2, CAKI2 (Kidney)): 0.139 µM
IC50 (CAKI-2, CAKI2 (Kidney)): 0.193 µM
GI50 (CAL-27, CAL27 (Head and Neck)): 0.0592 µM
IC50 (CAL-27, CAL27 (Head and Neck)): 0.0661 µM
GI50 [7]: 0.0836 µM
IC50 [7]: 0.0936 µM
GI50 (CAMA-1, CAMA1 (Breast)): 0.298 µM
IC50 (CAMA-1, CAMA1 (Breast)): 2.24 µM
GI50 [8]: 0.105 µM
IC50 [8]: > 10 µM
GI50 [9]: > 10 µM
IC50 [9]: > 10 µM
GI50 [10]: 5.03 µM
IC50 [10]: 6.05 µM
GI50 [11]: > 10 µM
IC50 [11]: > 10 µM
GI50 [12]: 0.0547 µM
IC50 [12]: 0.0605 µM
GI50 (CHL-1, CHL1 (Skin, Melanoma)): 0.103 µM
IC50 (CHL-1, CHL1 (Skin, Melanoma)): 0.117 µM
GI50 [13]: 0.0066 µM
IC50 [13]: 0.0165 µM
GI50 (COLO 201, COLO201 (Colon)): 0.0128 µM
IC50 (COLO 201, COLO201 (Colon)): 0.0172 µM
GI50 (COLO 205, COLO205 (Colon)): 0.0095 µM
IC50 (COLO 205, COLO205 (Colon)): 0.0117 µM
GI50 (COLO 320DM, COLO320DM (Colon)): 9.11 µM
IC50 (COLO 320DM, COLO320DM (Colon)): > 10 µM
GI50 [14]: 4.19 µM
IC50 [14]: 4.44 µM
GI50 [15]: 0.0121 µM
IC50 [15]: 0.0343 µM
GI50 [16]: 0.0238 µM
IC50 [16]: 0.0283 µM
GI50 [17]: 0.0165 µM
IC50 [17]: 0.0414 µM
GI50 [18]: 0.996 µM
IC50 [18]: 2.58 µM
GI50 [19]: 6.76 µM
IC50 [19]: > 10 µM
GI50 [20]: 0.0967 µM
IC50 [20]: 0.149 µM
GI50 [21]: 0.0463 µM
IC50 [21]: 0.083 µM
GI50 [22]: 0.429 µM
IC50 [22]: > 10 µM
GI50 [23]: 0.136 µM
IC50 [23]: 0.291 µM
GI50 [24]: > 10 µM
IC50 [24]: > 10 µM
GI50 [25]: 2.56 µM
IC50 [25]: 7.55 µM
GI50 [26]: 0.0432 µM
IC50 [26]: 0.0984 µM
GI50 (DLD-1, DLD1 (Colon)): 0.162 µM
IC50 (DLD-1, DLD1 (Colon)): 0.197 µM
GI50 [27]: 0.998 µM
IC50 [27]: > 10 µM
GI50 [28]: 0.0688 µM
IC50 [28]: 0.6 µM
GI50 [29]: 5.96 µM
IC50 [29]: 6.79 µM
GI50 [30]: 5.54 µM
IC50 [30]: 5.79 µM
GI50 [31]: 0.0738 µM
IC50 [31]: 0.0965 µM
GI50 [32]: 0.749 µM
IC50 [32]: 1.09 µM
GI50 [33]: 0.0177 µM
IC50 [33]: > 10 µM
GI50 [34]: 0.347 µM
IC50 [34]: > 10 µM
GI50 [35]: 0.04 µM
IC50 [35]: 0.132 µM
GI50 (EFM-19, EFM19 (Breast)): 4.2 µM
IC50 (EFM-19, EFM19 (Breast)): > 10 µM
GI50 (FaDu, FADU (Head and Neck)): 0.435 µM
IC50 (FaDu, FADU (Head and Neck)): 0.787 µM
GI50 (G-361, G361 (Skin, Melanoma)): 0.102 µM
IC50 (G-361, G361 (Skin, Melanoma)): 0.15 µM
GI50 (G-401, G401 (Kidney)): 0.0774 µM
IC50 (G-401, G401 (Kidney)): 0.086 µM
GI50 (G-402, G402 (Kidney)): 0.0504 µM
IC50 (G-402, G402 (Kidney)): 0.0925 µM
GI50 [36]: 0.0468 µM
IC50 [36]: 0.0567 µM
GI50 (HCT-15, HCT15 (Colon)): 1.97 µM
IC50 (HCT-15, HCT15 (Colon)): 2.23 µM
GI50 (HCT-116, HCT116 (Colon)): 0.0194 µM
IC50 (HCT-116, HCT116 (Colon)): 0.0204 µM
GI50 [37]: 1.8 µM
IC50 [37]: 2.81 µM
GI50 [38]: 4.62 µM
IC50 [38]: 8.23 µM
GI50 (HMCB, HMCB (Skin, Melanoma)): 0.0724 µM
IC50 (HMCB, HMCB (Skin, Melanoma)): 0.113 µM
GI50 [39]: 0.013 µM
IC50 [39]: 0.0175 µM
GI50 (HRT-18, HRT18 (Colon)): 0.0775 µM
IC50 (HRT-18, HRT18 (Colon)): 0.0819 µM
GI50 (HT1197, HT1197 (Bladder)): 0.444 µM
IC50 (HT1197, HT1197 (Bladder)): > 10 µM
GI50 (HT-29, HT29 (Colon)): 0.0129 µM
IC50 (HT-29, HT29 (Colon)): 0.0167 µM
GI50 [40]: 0.0648 µM
IC50 [40]: 0.0727 µM
GI50 (HT-1376, HT1376 (Bladder)): 0.792 µM
IC50 (HT-1376, HT1376 (Bladder)): 3.48 µM
GI50 (HeLa, HELA (Female GU, Cervix)): 6.75 µM
IC50 (HeLa, HELA (Female GU, Cervix)): 8.71 µM
GI50 (HepG2, HEPG2 (Liver)): 0.0224 µM
IC50 (HepG2, HEPG2 (Liver)): 0.0643 µM
GI50 [41]: 0.0507 µM
IC50 [41]: 0.0706 µM
GI50 (Hs 683, HS683 (CNS, Glioma)): 0.148 µM
IC50 (Hs 683, HS683 (CNS, Glioma)): 0.305 µM
GI50 [42]: 0.0363 µM
IC50 [42]: 0.16 µM
GI50 (Hs746T, 72 h, Stomach): 0.0396 µM
IC50 (Hs746T, 72 h, Stomach): 0.122 µM
GI50 (Hs-578T, HS578T (Breast)): 0.153 µM
IC50 (Hs-578T, HS578T (Breast)): 0.837 µM
GI50 (HuCCT-1, HUCCT1 (Liver)): 0.0537 µM
IC50 (HuCCT-1, HUCCT1 (Liver)): 0.0633 µM
GI50 [43]: 0.0434 µM
IC50 [43]: 0.0505 µM
GI50 (HuTu80, HUTU80 (Duodenum)): 0.057 µM
IC50 (HuTu80, HUTU80 (Duodenum)): 0.0695 µM
GI50 [44]: 3.58 µM
IC50 [44]: 4.78 µM
GI50 [45]: 6.34 µM
IC50 [45]: 7.75 µM
